Source: paper PMC5324278, “Novel synthetic analogues of avian β-defensin-12: the role of charge, hydrophobicity, and disulfide bridges in biological functions” (BMC Microbiology, 2017)
Bridge positions count the residues as written; N and C are the ends. Square brackets hold non-standard residues; d marks the D form. Ends that are not written are not given here. Abu = CC[C@H](N)C(=O)O

tested on: CCR2 transfected CHO-K1 cells; assay: Chemotaxis assay, 48-well microchemotaxis chamber; type: cell-based, avian; details: Fig. 9; n = 5

**Q.** With “GPDSC^1NHDRGLC^2RVGNC^3NPGEYLAKYC^4FEPVILC^5C^6VRNRWA (bicyclic or more) [AvBD-12/6, group 3 hybrid peptide: backbone of AvBD-12 with amino acid residues of AvBD-6]” as the substance, how does the “chemotactic activity for CCR2-CHO-K1 cells (in words)” value (shortened to “chemotactic activity … (in words)”) read?
**A.** retained the chemotactic function

**Q.** Which “chemotactic activity … (in words)” value does the source give for “GPDS[Abu]NHDRGL[Abu]RVGNCNPGEYLAKY[Abu]FEPVIL[Abu]CKPLSPTPTKT (disulfide 17-35) [AvBD-12A5]” here?
**A.** lost their chemotactic activity

**Q.** For “GPDS[Abu]NHDRGL[Abu]RVGN[Abu]NPGEYLAKY[Abu]FEPVIL[Abu][Abu]KPLSPTPTKT [AvBD-12A6]”, which “chemotactic activity … (in words)” value is on record?
**A.** lost their chemotactic activity

**Q.** With “GPHSANHVRGLARVGNANPGLYLAKYAFIPVILAAKPLSPTPTKT [AvBD-12A1]” as the substance, how does the “chemotactic activity … (in words)” value read?
**A.** minimal chemotactic activity

**Q.** With “GPRSANHKRGLARVGNANPGKYLAKYSFRPVILSSKPLSPTPTKT [AvBD-12A3]” as the substance, how does the “chemotactic activity … (in words)” value read?
**A.** minimal chemotactic activity

tested on: not given; assay: not given; details: not given

**Q.** For “GPRSANHKRGLARVGNANPGKYLAKYSFRPVILSSKPLSPTPTKT [AvBD-12A3]”, which chemotactic activity, % of wild type AvBD-12 is on record?
**A.** > 50%
